Where a name gives a salt, the structure may show the parent alone.

The text below walks through data of patent US10173999B2, “Cyclic amine derivative and pharmaceutical use thereof” (Toray Industries, Inc., priority 2015, dated 2019).

Data set [1] can be described thus: Stability test in mouse liver microsomes. In kind it is in vitro ADME. The settings on record: pH 7.4; mouse liver microsomes 0.5 mg/mL, test compound 2 μmol/L, 37° C., 0-30 min; read-out: Hepatic intrinsic clearance, Mouse. On the procedure:
Experiment was performed using the compound of Example 11, Comparative Example 1 or Comparative Example 6 as a test compound and human liver microsomes (from Xenotech), monkey liver microsomes (from Xenotech), dog liver microsomes (from Xenotech) or mouse liver microsomes (from Xenotech) as the liver microsomes.
The reagents to be used in the stability test in liver microsomes were prepared as follows. A D-glucose 6-phosphate disodium salt (hereinafter referred to as G6P) was dissolved with distilled water to prepare an aqueous solution of G6P (100 mmol/L). Glucose 6-phosphate dehydrogenase (1000 units) from Yeast (hereinafter referred to as G6PDH) was dissolved with distilled water (5 mL) to prepare an aqueous solution of G6PDH (200 units/mL). MgCl2 was dissolved with distilled water to prepare an aqueous solution of MgCl2 (100 mmol/L). […]
With respect to the chromatogram of each well obtained by LC/MS analysis or LC/MS/MS analysis, the test compound residual ratio (%) at each reaction time t (min) was calculated based on the peak area at the reaction time of 0 minute as 100%. […]

Data set [2] deals with Canine aortic smooth muscle cells. As to the kind of experiment: Inducibility of cytoplasmic vacuolation in canine aortic smooth muscle cells. The format is cell-based. The arrangement: key: Present: The term “present” in the tables means that cytoplasmic vacuolation was observed; Absent: the term “absent” means that cytoplasmic vacuolation was not observed. The settings on record: Concentration: 1.0 mmol/L, Treatment time: 24 hours. On the procedure: As a test compound, the compound of Example 3, 9, 11, 12 or compounds of Comparative Examples 2 to 6 were used. Canine aortic smooth muscle cells (Canine Aortic Smooth Muscle Cells, supply source: Toyobo Co., Ltd.) or human aortic smooth muscle cells of (T/G HA-VSMG, supply source: ATCC) were treated with a test compound (1.0 or 1.2 mmol/L in concentration) for 24 hours or 2 weeks. The cells were stained with HE, immunohistochemically for LAMP-2 or toluidine blue, and thereafter the presence or absence of cytoplasmic vacuolation was determined by using an optical microscope.

Regarding `CN(C)C1CCN(C(=O)CCc2nccn2C)CC1` [Comparative Example 1, 1-(4-(dimethylamino)piperidin-1-yl)-3-(1-methyl-1H-imidazol-2-yl)propan-1-one hydrochloride], the microsomal CLint at 2 μmol/L in data set [1] stood at 4 µL/min/mg.

As for `CC(C)n1ccnc1CCC(=O)N1CCC(N(C)C)CC1` [Comparative Example 6, 1-(4-(dimethylamino)piperidin-1-yl)-3-(1-isopropyl-1H-imidazol-2-yl)propan-1-one hydrochloride], the “Inducibility of cytoplasmic vacuolation” value in data set [2] was “Present”.

`CN(C)C1CCN(C(=O)C[C@H](O)c2nccn2C)CC1` [Example 11, (S)-1-(4-(dimethylamino)piperidin-1-yl)-3-hydroxy-3-(1-methyl-1H-imidazol-2-yl)propan-1-one]: in data set [1], the microsomal CLint at 2 μmol/L worked out at 3 µL/min/mg. In addition, the “Inducibility of cytoplasmic vacuolation” value in data set [2] was “Absent”.
